Patent publication US20070213346A1, “Substituted 4-Alkyl-And 4-Alkanoyl-Piperidine Derivatives And Their Use As Neurokinin Antagonists” (priority 2004, published 2007)

Experiments:
Type in all cases: cell-based
NK3 = molecular target: T1, NK3 (Homo sapiens, UniProt P29371); assay: Signal transduction (ST), intracellular Ca++ FLIPR, NK3; conditions: antagonist, Ca++ transient peak, read-out: NK3 pIC50 (converted)
T1 sequence (P29371 1-465): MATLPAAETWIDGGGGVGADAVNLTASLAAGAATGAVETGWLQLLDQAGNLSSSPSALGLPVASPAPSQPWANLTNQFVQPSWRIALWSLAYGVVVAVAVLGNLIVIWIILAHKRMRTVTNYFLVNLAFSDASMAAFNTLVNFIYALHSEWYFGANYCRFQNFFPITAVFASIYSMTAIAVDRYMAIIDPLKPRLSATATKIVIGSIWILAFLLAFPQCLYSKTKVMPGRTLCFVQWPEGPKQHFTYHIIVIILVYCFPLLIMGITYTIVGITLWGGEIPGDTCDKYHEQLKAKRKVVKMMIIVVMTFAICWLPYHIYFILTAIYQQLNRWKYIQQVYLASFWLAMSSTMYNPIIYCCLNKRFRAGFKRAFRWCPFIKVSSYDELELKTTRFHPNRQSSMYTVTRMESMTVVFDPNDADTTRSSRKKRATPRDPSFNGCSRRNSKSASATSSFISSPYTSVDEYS
Procedure: [The source words this procedure for another target and reports this target under the same test.] (§1) This test evaluates in vitro functional NK1 antagonistic activity. For the measurements of intracellular Ca^++ concentrations the cells were grown on 96-well (black wall/transparent bottom) plates from Costar for 2 days until they reached confluence. The cells were loaded with 2 μM Fluo3 in DMEM containing 0.1% BSA and 2.5 mM probenecid for 1 h at 37° C. They were washed 3× with a Krebs buffer (140 mM NaCl, 1 mM MgCl2x6H2O, 5 mM KCl, 10 mM glucose, 5 mM HEPES; 1.25 mM CaCl2; pH 7.4) containing 2.5 mM probenecid and 0.1% BSA (Ca^++-buffer). The cells were preincubated with a concentration range of antagonists for 20 min at RT and Ca^++-signals after addition of the agonists were measured in a Fluorescence Image Plate Reader (FLIPR from Molecular Devices, Crawley, England). The peak of the Ca^++-transient was considered as the relevant signal and the mean values of corresponding wells were analysed as described below.
(§2) The sigmoidal dose response curves were analysed by computerised curve-fitting, using the GraphPad program. The EC50-value of a compound is the effective dose showing 50% of maximal effect. For mean curves the response to the agonist with the highest potency was normalised to 100%. For antagonist responses the IC50-value was calculated using non-linear regression.
(§3) The last columns indicates—without being limited thereto—for which use the compounds might be most suitable. Of course, since for some neurokinin receptors no data was determined, it is obvious that these compounds might be attributed to another suitable use.

NK1 = NK1 (Homo sapiens, UniProt P25103); assay: Signal transduction (ST), intracellular Ca++ FLIPR, NK1; conditions: antagonist, Ca++ transient peak, read-out: NK1 pIC50 (converted)
Procedure: as §1
as §2, with “regression. […]” for “regression.”

NK2 = molecular target: T2, NK2 (Homo sapiens, UniProt P21452); assay: Signal transduction (ST), intracellular Ca++ FLIPR, NK2; conditions: antagonist, Ca++ transient peak, read-out: NK2 pIC50 (converted)
T2 sequence (P21452 1-398): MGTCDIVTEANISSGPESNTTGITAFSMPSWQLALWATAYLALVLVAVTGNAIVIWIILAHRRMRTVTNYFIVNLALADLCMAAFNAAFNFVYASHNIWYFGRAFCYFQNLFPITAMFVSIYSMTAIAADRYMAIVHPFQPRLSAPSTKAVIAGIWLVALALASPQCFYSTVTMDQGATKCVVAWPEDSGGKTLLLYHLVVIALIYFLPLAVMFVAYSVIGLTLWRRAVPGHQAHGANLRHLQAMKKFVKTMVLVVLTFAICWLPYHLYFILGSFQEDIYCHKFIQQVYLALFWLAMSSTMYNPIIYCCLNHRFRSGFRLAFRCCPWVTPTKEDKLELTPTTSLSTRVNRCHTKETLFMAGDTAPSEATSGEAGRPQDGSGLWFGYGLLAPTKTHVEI
Procedure: [The source words this procedure for another target and reports this target under the same test.] as §1, §2, §3

NK1, sequence (P25103 whole entry): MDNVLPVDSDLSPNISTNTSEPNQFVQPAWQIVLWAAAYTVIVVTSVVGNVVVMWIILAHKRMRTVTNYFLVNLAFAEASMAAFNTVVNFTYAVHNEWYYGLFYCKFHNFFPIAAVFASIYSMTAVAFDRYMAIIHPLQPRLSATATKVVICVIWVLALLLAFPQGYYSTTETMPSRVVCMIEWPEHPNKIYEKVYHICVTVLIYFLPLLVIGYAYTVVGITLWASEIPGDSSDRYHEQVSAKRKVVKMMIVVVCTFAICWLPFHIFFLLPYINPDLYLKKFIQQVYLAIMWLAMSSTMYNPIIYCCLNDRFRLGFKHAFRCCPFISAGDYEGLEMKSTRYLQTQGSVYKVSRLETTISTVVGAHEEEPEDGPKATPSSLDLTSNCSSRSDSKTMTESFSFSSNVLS

Row | Structure (SMILES) | IC50 (NK3) [µM] | IC50 (NK1) [µM] | IC50 (NK2) [µM]
1 | CC(C)(C)OC(=O)N1CCC(N2CCN(C(=O)CC3CCN(C(=O)c4cc(C(F)(F)F)cc(C(F)(F)F)c4)[C@@H](Cc4ccccc4)C3)CC2)C1 (mixture of isomers) [Compound 7] | > 10 | 0.174 | 
2 | O=C(CC1CCN(C(=O)c2cc(C(F)(F)F)cc(C(F)(F)F)c2)[C@@H](Cc2ccccc2)C1)N1CCN(C2CCN(C(=O)C3CCOC3)C2)CC1 (mixture of isomers) [Compound 73] | > 10 | 0.0417 | 
3 | O=C(c1cc2ccccc2oc1=O)N1CCC(N2CCN(C[C@H]3CCN(C(=O)c4cc(C(F)(F)F)cc(C(F)(F)F)c4)[C@H](Cc4ccccc4)C3)CC2)CC1 (relative stereo) [Compound 50] |  | 0.0912 | 
4 | O=C(C1CCN(C(=O)c2cc(C(F)(F)F)cc(C(F)(F)F)c2)C(Cc2ccccc2)C1)N1CCN(C2CCN(Cc3ccccc3)CC2)CC1 (centres unmarked) [Compound 3] | > 10 | 0.347 | 
5 | O=C(C1CCN(C(=O)c2cc(C(F)(F)F)cc(C(F)(F)F)c2)C(Cc2ccccc2)C1)N1CCN(C2CCNCC2)CC1 (centres unmarked) [Compound 4] | > 10 | 0.251 | 
6 | CC(C)(C)OC(=O)N1CCC(N2CCN(CC3CCN(C(=O)c4cc(C(F)(F)F)cc(C(F)(F)F)c4)C(Cc4ccccc4)C3)CC2)CC1 (centres unmarked) [Compound 5] | > 10 | 0.209 | 
7 | O=C(CC1CCN(C(=O)c2cc(C(F)(F)F)cc(C(F)(F)F)c2)C(Cc2ccccc2)C1)N1CCN(C2CCNC2)CC1 (centres unmarked) [Compound 8] | > 10 | 0.302 | 
8 | Cc1cc(C)cc(C(=O)N2CCC(N3CCN(CC4CCN(C(=O)c5cc(C(F)(F)F)cc(C(F)(F)F)c5)C(Cc5ccccc5)C4)CC3)CC2)c1 (centres unmarked) [Compound 12] |  | 0.316 | 
9 | O=C(C1CCN(C(=O)c2cc(C(F)(F)F)cc(C(F)(F)F)c2)C(Cc2ccccc2)C1)N1CCN(C2CCN(S(=O)(=O)c3cccs3)C2)CC1 (centres unmarked) [Compound 13] | 2.51 | 0.0132 | 
10 | O=C(c1ccc2ccccc2n1)N1CCC(N2CCN(CC3CCN(C(=O)c4cc(C(F)(F)F)cc(C(F)(F)F)c4)C(Cc4ccccc4)C3)CC2)CC1 (centres unmarked) [Compound 16] |  | 0.138 | 
11 | Cn1cccc1C(=O)N1CCC(N2CCN(CC3CCN(C(=O)c4cc(C(F)(F)F)cc(C(F)(F)F)c4)C(Cc4ccccc4)C3)CC2)CC1 (centres unmarked) [Compound 33] |  | 0.224 | 
12 | Cn1cccc1C(=O)N1CCC(N2CCN(C[C@H]3CCN(C(=O)c4cc(C(F)(F)F)cc(C(F)(F)F)c4)[C@H](Cc4ccccc4)C3)CC2)CC1 [Compound 34] |  | 0.209 | 
13 | Cc1cc(C(=O)N2CCC(N3CCN(C[C@H]4CCN(C(=O)c5cc(C(F)(F)F)cc(C(F)(F)F)c5)[C@H](Cc5ccccc5)C4)CC3)CC2)no1 [Compound 36] |  | 0.0468 | 
14 | Cn1cc(C(=O)N2CCC(N3CCN(CC4CCN(C(=O)c5cc(C(F)(F)F)cc(C(F)(F)F)c5)C(Cc5ccccc5)C4)CC3)CC2)c2ccccc21 (centres unmarked) [Compound 40] |  | 0.347 | 
15 | Cc1cccc(C(=O)N2CCC(N3CCN(C[C@H]4CCN(C(=O)c5cc(C(F)(F)F)cc(C(F)(F)F)c5)[C@H](Cc5ccccc5)C4)CC3)CC2)c1 [Compound 41] |  | 0.166 | 
16 | O=C(c1ccccc1O)N1CCC(N2CCN(CC3CCN(C(=O)c4cc(C(F)(F)F)cc(C(F)(F)F)c4)C(Cc4ccccc4)C3)CC2)CC1 (centres unmarked) [Compound 43] |  | 0.123 | 
17 | O=C(c1cccc(O)c1)N1CCC(N2CCN(CC3CCN(C(=O)c4cc(C(F)(F)F)cc(C(F)(F)F)c4)C(Cc4ccccc4)C3)CC2)CC1 (centres unmarked) [Compound 44] |  | 0.0871 | 
18 | O=C(c1ccccn1)N1CCC(N2CCN(C[C@H]3CCN(C(=O)c4cc(C(F)(F)F)cc(C(F)(F)F)c4)[C@H](Cc4ccccc4)C3)CC2)CC1 [Compound 47] |  | 0.204 | 

Row | Structure (SMILES) | IC50 (NK3) [µM] | IC50 (NK1) [µM] | IC50 (NK2) [µM]
19 | O=C(c1cccnc1)N1CCC(N2CCN(C[C@H]3CCN(C(=O)c4cc(C(F)(F)F)cc(C(F)(F)F)c4)[C@H](Cc4ccccc4)C3)CC2)CC1 [Compound 48] |  | 0.0257 | > 10
20 | O=C(Cc1c[nH]cn1)N1CCC(N2CCN(CC3CCN(C(=O)c4cc(C(F)(F)F)cc(C(F)(F)F)c4)C(Cc4ccccc4)C3)CC2)CC1 (centres unmarked) [Compound 51] |  | 0.12 | 
21 | COc1cc(CC(=O)N2CCC(N3CCN(CC4CCN(C(=O)c5cc(C(F)(F)F)cc(C(F)(F)F)c5)C(Cc5ccccc5)C4)CC3)CC2)cc(OC)c1OC (centres unmarked) [Compound 53] |  | 0.0851 | 
22 | O=C(c1ccoc1)N1CCC(N2CCN(C(=O)[C@H]3CCN(C(=O)c4cc(C(F)(F)F)cc(C(F)(F)F)c4)[C@H](Cc4ccccc4)C3)CC2)CC1 [Compound 57] | 2.45 | 0.0229 | 
23 | Cc1nnsc1C(=O)N1CCC(N2CCN(C(=O)[C@H]3CCN(C(=O)c4cc(C(F)(F)F)cc(C(F)(F)F)c4)[C@H](Cc4ccccc4)C3)CC2)CC1 [Compound 58] | > 10 | 0.00871 | 
24 | O=C(c1ccccc1)N1CCC(N2CCN(C(=O)[C@H]3CCN(C(=O)c4cc(C(F)(F)F)cc(C(F)(F)F)c4)[C@H](Cc4ccccc4)C3)CC2)CC1 [Compound 59] | 9.55 | 0.0107 | 
25 | O=C([C@H]1CCN(C(=O)c2cc(C(F)(F)F)cc(C(F)(F)F)c2)[C@H](Cc2ccccc2)C1)N1CCN(C2CCNC2)CC1 (some centres unmarked) [Compound 66] | 6.76 | 0.214 | 
26 | O=C([C@H]1CCN(C(=O)c2cc(C(F)(F)F)cc(C(F)(F)F)c2)[C@H](Cc2ccccc2)C1)N1CCN(C2CCN(Cc3ccccc3)C2)CC1 (some centres unmarked) [Compound 67] | > 10 | 0.0759 | 
27 | O=C(C1CC1)N1CCC(N2CCN(C(=O)[C@H]3CCN(C(=O)c4cc(C(F)(F)F)cc(C(F)(F)F)c4)[C@H](Cc4ccccc4)C3)CC2)C1 (some centres unmarked) [Compound 68] | 6.61 | 0.0132 | 
28 | O=C(C1CCOC1)N1CCC(N2CCN(C(=O)[C@H]3CCN(C(=O)c4cc(C(F)(F)F)cc(C(F)(F)F)c4)[C@H](Cc4ccccc4)C3)CC2)C1 (some centres unmarked) [Compound 69] | 6.03 | 0.0398 | 
29 | O=C(c1ccoc1)N1CCC(N2CCN(C(=O)[C@H]3CCN(C(=O)c4cc(C(F)(F)F)cc(C(F)(F)F)c4)[C@H](Cc4ccccc4)C3)CC2)C1 (some centres unmarked) [Compound 70] | > 10 | 0.0257 | 
30 | O=C(c1ccccc1Cl)N1CCC(N2CCN(C(=O)[C@H]3CCN(C(=O)c4cc(C(F)(F)F)cc(C(F)(F)F)c4)[C@H](Cc4ccccc4)C3)CC2)C1 (some centres unmarked) [Compound 72] | > 10 | 0.0316 | 
31 | COC1(CN2CCN(C3CCNC3)CC2)CCN(C(=O)c2cc(C(F)(F)F)cc(C(F)(F)F)c2)C(Cc2ccccc2)C1 (centres unmarked) [Compound 81] | > 10 | 0.2 | 
32 | COC1(CN2CCN(C3CCN(C(=O)c4ccoc4)C3)CC2)CCN(C(=O)c2cc(C(F)(F)F)cc(C(F)(F)F)c2)C(Cc2ccccc2)C1 (centres unmarked) [Compound 85] | > 10 | 0.0646 | 
33 | COC1(CN2CCN(C3CCN(C(=O)c4snnc4C)C3)CC2)CCN(C(=O)c2cc(C(F)(F)F)cc(C(F)(F)F)c2)C(Cc2ccccc2)C1 (centres unmarked) [Compound 86] | 10.2 | 0.0676 | 
34 | COC1(CN2CCN(C3CCN(C(=O)c4ccccc4)C3)CC2)CCN(C(=O)c2cc(C(F)(F)F)cc(C(F)(F)F)c2)C(Cc2ccccc2)C1 (centres unmarked) [Compound 87] | > 10 | 0.115 | 
35 | COC1(CN2CCN(C3CCN(C(=O)c4cccnc4)C3)CC2)CCN(C(=O)c2cc(C(F)(F)F)cc(C(F)(F)F)c2)C(Cc2ccccc2)C1 (centres unmarked) [Compound 88] | > 10 | 0.0617 | 
36 | COC1(CN2CCN(C3CCN(S(=O)(=O)c4c(C)noc4C)C3)CC2)CCN(C(=O)c2cc(C(F)(F)F)cc(C(F)(F)F)c2)C(Cc2ccccc2)C1 (centres unmarked) [Compound 89] | 3.55 | 0.0603 | 
